Measurements taken from patent publication US9512139B2, “Conformationally constrained, fully synthetic macrocyclic compounds” (POLYPHOR AG, priority 2009, dated 2016).

Key:
[1] = in vitro; type: in vitro ADME, mouse; details: plasma; for Plasma Stability 240 min mouse [% remain.]: 4 h
[2] = in vitro; type: in vitro ADME, human; details: human, plasma; for Plasma Stability 240 min hum [% remain.]: 4 h
Protocol: Example compounds were dissolved in DMSO/H2O 90:10 to a final concentration of 10 mM for plasma stability determination and metabolic stability determination.
Human plasma (3-5 donors, Blutspendedienst SRK, Basel) and CD-1 mouse plasma (mixed gender pool >50 animals, Innovative Research, CA, USA) are both sodium citrate stabilized. The assay is performed in triplicates at 10 μM compound concentration and 37° C. Samples are taken at 0, 15, 60, and 240 minutes and stopped by precipitation with 2 volumes of acetonitrile. The supernatant is collected, evaporated and reconstituted in a 5% acetonitrile solution to be analyzed by HPLC/MS/MS. The resulting peak area counts are expressed in percent of the 0 value and used to determine the endpoint stability in % and the half life in minutes. In order to monitor assay integrity the degradation of propantheline is assayed with every experimental set.

[3] = Metabolic stability assay, CD-1 mouse microsomes; type: in vitro ADME; details: microsomes; for half-life at 10 µM: both sexes; for Metabolic Stability 60 min mouse [% remain.]: 1 h
Protocol: (§1) 4. Plasma and Metabolic Stability Assays
(§2) The assays were conducted according to literature precedents (F. P. Guengerich, Analysis and Characterization of Enzymes; in: Principles and Methods of Toxicology; A. W. Hayes (Ed.) Raven Press: New York, 1989, 777-813; R. Singh et al., In vitro metabolism of a potent HIV-protease inhibitor (141W94) using rat, monkey and human liver S9, Rapid Commun. Mass Spectrom. 1996, 10, 1019-1026).
(§3) Metabolic Stability Assay
(§4) Microsomes from a human 50 donor mixed gender pool and 1:1 mixtures of microsomes from CD-1 mouse single-gender pools are purchased from Celsis (Belgium). The enzymatic reaction is performed in a buffer containing an NADPH regeneration system and microsomes with the following end concentrations: 100 mM potassium phosphate buffer (all from Sigma), 1 mg/mL glucose-6-phosphate, 1 mg/mL β-nicotinamide adenine dinucleotide phosphate (NADP), 0.65 mg/mL magnesium chloride, 0.8 units/mL of glucose-6-phosphate dehydrogenase (prediluted with 5 mM citrate buffer), 10 μM compound and 1 mg/ml microsomal protein. Compounds are incubated at 37° C. in duplicates and samples are taken after 0, 20 and 60 minutes. After acetonitrile precipitation (2 volumes) and HPLC/MS/MS analysis metabolic turnover is expressed in % of the initial 0 minutes value and half life T½ (min) is calculated. Verapamil for human and propranolol for mouse are used as reference and are assayed with every experimental set.

[4] = Metabolic stability assay, human microsomes; type: in vitro ADME; details: human, microsomes; for half-life at 10 µM: both sexes; for Metabolic Stability 60 min hum [% remain.]: 1 h
Protocol: as §1, §2, §3, §4
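For Plasma Stability 240 min mouse [% remain.] in this document: sodium citrate stabilized mouse plasma, parent compound quantified by HPLC/MS/MS relative to its peak area at time zero, run in triplicate.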
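For Plasma Stability T½ [min] mouse in this document: sodium citrate stabilized mouse plasma, parent compound quantified by HPLC/MS/MS relative to its peak area at time zero, run in triplicate.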

SMILES	Plasma Stability 240 min mouse [% remain.] ([1]; both, CD-1, mouse, 10 µM)	Plasma Stability 240 min hum [% remain.] ([2]; 10 µM)	half-life at 10 µM ([3]; CD-1, mouse)	Metabolic Stability 60 min mouse [% remain.] ([3]; both, CD-1, mouse, 10 µM)	half-life at 10 µM [4]	Metabolic Stability 60 min hum [% remain.] ([4]; both, 10 µM)	Plasma Stability T½ [min] mouse ([1]; both, CD-1, mouse, 10 µM)	Plasma Stability T½ [min] hum ([2]; 10 µM)	Metabolic Stability T½ [min] mouse ([3]; both, CD-1, mouse, 10 µM)	Plasma Stability T½ [min] mouse ([1]; mouse)	Plasma Stability 240 min mouse [% remain.] ([1]; mouse)	Plasma Stability T½ [min] hum [2]	Plasma Stability 240 min hum [% remain.] [2]	Metabolic Stability T½ [min] mouse ([3]; mouse)	Metabolic Stability 60 min mouse [% remain.] ([3]; mouse)	Metabolic Stability T½ [min] hum [4]	Metabolic Stability 60 min hum [% remain.] [4]	Metabolic Stability T½ [min] hum ([4]; both, 10 µM)	half-life at 10 µM ([1]; both sexes, CD-1, mouse)
CCCCC(=O)N[C@H]1C[C@H]2COc3ccc(F)cc3C(=O)N(C)[C@@H](C(=O)NCc3ccc4ccccc4c3)CCC(=O)N(C)CC(=O)N2C1 [Ex. 103, (2S,11R,19aS)-15-fluoro-7,12-dimethyl-N-(2-naphthylmethyl)-5,8,13-trioxo-2-(pentanoylamino)-2,3,6,7,8,9, 10,11,12,13,19,19a-dodecahydro-1H,5H-pyrrolo[2,1-c][1,4,7,12] benzoxatriazacyclopentadecine-11-carboxamide]	75 % remain.	97 % remain.	0.6 h	25 % remain.	0.583 h	22 % remain.	–	–	–	–	–	–	–	–	–	–	–	–	–
CCN(CC)[C@@H]1C[C@H]2COc3ccc(cc3)C(=O)N(C)[C@H](C(=O)NCc3ccc4ccccc4c3)CCC(=O)N(C)CC(=O)N2C1 [Ex. 262, (4S,6R,15S)-6-(diethylamino)-11,16-dimethyl-N-(2-naphthylmethyl)-9,12,17-trioxo-2-oxa-8,11,16-triazatricyclo[16.2.2.0^4,8]docosa-1(20),18,21-triene-15-carboxamide]	93 % remain.	100 % remain.	0.383 h	4 % remain.	0.35 h	0 % remain.	> 240 min	> 240 min	–	–	–	–	–	–	–	–	–	–	–
CN1CCC[C@H](N)C(=O)N2C[C@@H](OCc3ccc(-c4cccnc4)cc3)C[C@H]2COc2cccc(c2)C1=O [Ex. 578, (4S,6S,10S)-10-amino-14-methyl-6-{[4-(3-pyridinyl)benzyl]oxy}-2-oxa-8,14-diazatricyclo[14.3.1.0^4,8]icosa-1(20),16,18-triene-9,15-dione]	86 % remain.	100 % remain.	–	55 % remain.	0.867 h	46 % remain.	> 240 min	> 240 min	> 60 min	–	–	–	–	–	–	–	–	–	–
CN1CC(=O)N2C[C@H](NC(=O)CCc3ccncc3)C[C@H]2COc2ccc(cc2)C(=O)N(C)[C@H](C(=O)NCc2ccc3ccccc3c2)CCC1=O [Ex. 260, (4S,6R,15S)-11,16-dimethyl-N-(2-naphthylmethyl)-9,12,17-trioxo-6-{[3-(4-pyridinyl)propanoyl]amino}-2-oxa-8,11,16-triazatricyclo[16.2.2.0^4,8]docosa-1(20),18,21-triene-15-carboxamide]	100 % remain.	100 % remain.	–	69 % remain.	0.617 h	19 % remain.	> 240 min	> 240 min	> 60 min	–	–	–	–	–	–	–	–	–	–
CC(C)CN1C[C@H]2C[C@H]1COc1ccc(F)cc1C(=O)N(C)CCC[C@H](NC(=O)Cc1ccccc1)C(=O)N2 [Ex. 407, N-[(1S,15S,18R)-7-fluoro-20-isobutyl-11-methyl-10,16-dioxo-3-oxa-11,17,20-triazatricyclo[16.2.1.0^4,9]henicosa-4,6,8-trien-15-yl]-2-phenylacetamide]	98 % remain.	80 % remain.	–	84 % remain.	0.85 h	47 % remain.	> 240 min	> 240 min	> 60 min	–	–	–	–	–	–	–	–	–	–
CC(=O)N[C@H]1C[C@H]2COc3ccc(F)cc3C(=O)N(C)[C@H](C(=O)N3CCCC3)CCC(=O)N(C)CC(=O)N2C1 [Ex. 37, N-[(2S,11S,19aS)-15-fluoro-7,12-dimethyl-5,8,13-trioxo-11-(1-pyrrolidinylcarbonyl)-2,3,6,7,8,9,10,11,12,13,19,19a-dodecahydro-1H,5H-pyrrolo[2,1-c] [1,4,7,12]benzoxatriazacyclo-pentadecin-2-yl]acetamide]	–	–	–	–	–	–	–	–	–	> 240 min	100 % remain.	> 240 min	77 % remain.	> 60 min	100 % remain.	> 60 min	100 % remain.	–	–
CCCCC(=O)N[C@@H]1C[C@H]2COc3ccc(F)cc3C(=O)N(C)[C@H](C(=O)N(C)CCN(C)C)CCC(=O)N(C)CC(=O)N2C1 [Ex. 78, (2R,11S,19aS)-N-[2-(dimethylamino)ethyl]-15-fluoro-N,7,12-trimethyl-5,8,13-trioxo-2-(pentanoylamino)-2,3,6,7,8,9,10,11,12,13,19, 19a-dodecahydro-1H,5H-pyrrolo[2,1-c][1,4,7,12]benzoxatriazacyclopentadecine-11-carboxamide]	100 % remain.	65 % remain.	–	100 % remain.	–	78 % remain.	> 240 min	> 240 min	> 60 min	–	–	–	–	–	–	–	–	> 60 min	–
CN1CC(=O)N2C[C@H](NC(=O)Cc3ccc4ccccc4c3)C[C@H]2COc2ccc(cc2)C(=O)N(C)[C@H](C(=O)N2CCCC2)CCC1=O [Ex. 264, N-[(4S,6R,15S)-11,16-dimethyl-9,12,17-trioxo-15-(1-pyrrolidinylcarbonyl)-2-oxa-8,11,16-triazatricyclo[16.2.2.0^4,8]docosa-1(20),18,21-trien-6-yl]-2-(2-naphthyl)acetamide]	88 % remain.	94 % remain.	0.7 h	32 % remain.	–	–	> 240 min	> 240 min	–	–	–	–	–	–	–	–	–	–	–
CN(C)CCNC(=O)[C@H]1CCC(=O)N(C)CC(=O)N2CCN(C(=O)Cc3ccc4ccccc4c3)C[C@@H]2COc2ccc(F)cc2C(=O)N1C [Ex. 138, (12R,20aR)-N-[2-(dimethylamino)ethyl]-16-fluoro-8,13-dimethyl-2-[2-(2-naphthyl)acetyl]-6,9,14-trioxo-1,2,3,4,7,8,9,10,11,12,13,14,20,20a-tetradecahydro-6H-pyrazino[2,1-c][1,4,7,12]benzoxatriazacyclopentadecine-12-carboxamide]	78 % remain.	89 % remain.	–	99 % remain.	–	62 % remain.	> 240 min	> 240 min	> 60 min	–	–	–	–	–	–	–	–	> 60 min	–
CCCCC(=O)N[C@H]1C[C@H]2COc3cccc(c3)C(=O)N(C)CC[C@H](N)C(=O)N2C1 [Ex. 167, N-[(4S,6S,10S)-10-amino-13-methyl-9,14-dioxo-2-oxa-8,13-diazatricyclo[13.3.1.0^4,8]nonadeca-1(19),15,17-trien-6-yl] pentanamide]	17 % remain.	–	–	65 % remain.	–	58 % remain.	–	–	> 60 min	–	–	–	–	–	–	–	–	> 60 min	0.583 h
